US20080193943A1, “Companion diagnostic assays for cancer therapy” (ABBOTT LABORATORIES, priority 2006, published 2008)

Experiments:
[1] = system: SCLC and lymphoma cell lines; conditions: from Oltersdorf, Nature 435: 677-681, 2005; cited from earlier work
[2] = system: NCI-H82; experiment: sensitivity of SCLC cell line to ABT-737; assay type: cell-based; conditions: Homo sapiens, read-out: sensitivity to ABT-737 (EC50 class)
Protocol: (§1) The following SCLC cell lines were obtained from ATCC (Manassis, Va.): NCI-H889, NCI-H1963, NCI-H1417, NCI-H146, NCI-H187, DMS53, NCI-H510, NCI-H1209, NCI-H526, NCI-H211, NCI-H345, NCI-H524, NCI-H69, NCI-H748, DMS79, NCI-H711, SHP77, NCI-446, NCI-H1048, NCI-H82, NCI-H196, SW1271, H69AR. All cells were cultured in the ATCC recommended media at 37° C. in a humidified atmosphere containing 5% CO2. Genomic DNA was isolated from the cell lines using a DNAeasy kit (Qiagen, Valencia, Calif.).
(§2) The 23 SCLC cell lines were tested for sensitivity to ABT-737 using the procedure described in Oltersdorf, T., “An inhibitor of Bcl-2 family proteins induces regression of solid tumours”, Nature, 435: 677-681, 2005, with a cell line classified as sensitive if its EC50<1 μM and as resistant if its EC50>10 μM. The sensitive cell line group consisted of NCI-H889, NCI-H1963, NCI-H1417, NCI-H146, NCI-H187, DMS 53, NCI-H510, NCI-H209, NCI-H526, NCI-H211, NCI-H345, and NCI-H524 and the resistant cell line group was comprised of NCI-H82, NCI-H196, SW1271, and H69AR.

[3] = system: NCI-H526; experiment: sensitivity of SCLC cell line to ABT-737; assay type: cell-based; conditions: Homo sapiens, read-out: sensitivity to ABT-737 (EC50 class)
Protocol: as §1, §2

[4] = system: NCI-H209; experiment: sensitivity of SCLC cell line to ABT-737; assay type: cell-based; conditions: Homo sapiens, read-out: sensitivity to ABT-737 (EC50 class)
Protocol: as §1, §2

[5] = system: H69AR; experiment: sensitivity of SCLC cell line to ABT-737; assay type: cell-based; conditions: Homo sapiens, read-out: sensitivity to ABT-737 (EC50 class)
Protocol: as §1, §2

[6] = system: DMS 53; experiment: sensitivity of SCLC cell line to ABT-737; assay type: cell-based; conditions: Homo sapiens; DMS 53 SCLC cell line; read-out: sensitivity to ABT-737 (EC50 class)
Protocol: as §1, §2

[7] = system: NCI-H345; experiment: sensitivity of SCLC cell line to ABT-737; assay type: cell-based; conditions: Homo sapiens, read-out: sensitivity to ABT-737 (EC50 class)
Protocol: as §1, §2

[8] = system: NCI-H1963; experiment: sensitivity of SCLC cell line to ABT-737; assay type: cell-based; conditions: Homo sapiens, read-out: sensitivity to ABT-737 (EC50 class)
Protocol: as §1, §2

[9] = system: NCI-H196; experiment: sensitivity of SCLC cell line to ABT-737; assay type: cell-based; conditions: Homo sapiens, read-out: sensitivity to ABT-737 (EC50 class)
Protocol: as §1, §2

[10] = system: NCI-H889; experiment: sensitivity of SCLC cell line to ABT-737; assay type: cell-based; conditions: Homo sapiens, read-out: sensitivity to ABT-737 (EC50 class)
Protocol: as §1, §2

[11] = system: NCI-H510; experiment: sensitivity of SCLC cell line to ABT-737; assay type: cell-based; conditions: Homo sapiens, read-out: sensitivity to ABT-737 (EC50 class)
Protocol: as §1, §2

[12] = system: SW1271; experiment: sensitivity of SCLC cell line to ABT-737; assay type: cell-based; conditions: Homo sapiens, read-out: sensitivity to ABT-737 (EC50 class)
Protocol: as §1, §2

[13] = system: NCI-H524; experiment: sensitivity of SCLC cell line to ABT-737; assay type: cell-based; conditions: Homo sapiens, read-out: sensitivity to ABT-737 (EC50 class)
Protocol: as §1, §2

[14] = system: NCI-H211; experiment: sensitivity of SCLC cell line to ABT-737; assay type: cell-based; conditions: Homo sapiens, read-out: sensitivity to ABT-737 (EC50 class)
Protocol: as §1, §2

[15] = system: NCI-H187; experiment: sensitivity of SCLC cell line to ABT-737; assay type: cell-based; conditions: Homo sapiens, read-out: sensitivity to ABT-737 (EC50 class)
Protocol: as §1, §2

[16] = system: NCI-H146; experiment: sensitivity of SCLC cell line to ABT-737; assay type: cell-based; conditions: Homo sapiens, read-out: sensitivity to ABT-737 (EC50 class)
Protocol: as §1, §2

[17] = system: NCI-H1417; experiment: sensitivity of SCLC cell line to ABT-737; assay type: cell-based; conditions: Homo sapiens, read-out: sensitivity to ABT-737 (EC50 class)
Protocol: as §1, §2

[18] = system: solid tumors; conditions: from Oltersdorf, Nature 435: 677-681, 2005; cited from earlier work

In the case of `CN(C)CC[C@H](CSc1ccccc1)Nc1ccc(S(=O)(=O)NC(=O)c2ccc(N3CCN(Cc4ccccc4-c4ccc(Cl)cc4)CC3)cc2)cc1[N+](=O)[O-]` [ABT-737, N-(4-(4-((4′-chloro(1,1′-biphenyl)-2-yl)methyl)piperazin-1-yl)benzoyl)-4-(((1R)-3-(dimethylamino)-1-((phenylsulfanyl)methyl)propyl)amino)-3-nitrobenzenesulfonamide], the “potency against a diverse panel of human cancer cell lines” value [1] is given as “selective potency against SCLC and lymphoma cell lines”, the EC50 [2] is given as greater than 10000 nM and the EC50 [3] is given as less than 1000 nM. The EC50 [4] was less than 1000 nM, the EC50 [5] was greater than 10000 nM and the EC50 [6] was less than 1000 nM. It also gave an EC50 [7] of less than 1000 nM, an EC50 [8] of less than 1000 nM and an EC50 [9] greater than 10000 nM. The EC50 [10] was less than 1000 nM, the EC50 [11] was less than 1000 nM and the EC50 [12] was greater than 10000 nM. For the same compound, the EC50 [13] was less than 1000 nM, the EC50 [14] was less than 1000 nM and the EC50 [15] was less than 1000 nM. For the same compound, the EC50 [16] was less than 1000 nM, the EC50 [17] was less than 1000 nM and the “effect on solid tumors” value [18] was “induce regression of solid tumors”.
